{"source": "patent US11628159B2", "about": "“Cell-protective compounds and their use” (ETH ZURICH, priority 2017, dated 2023)", "key": {"[1]": {"test_system": "B6 mice with AAC", "assay": "Chronic pressure overload (AAC) model, 7 days of treatment: cardiac p-Srsf1 and echocardiography", "format": "in vivo, mouse", "conditions": "5 mg/kg/d for 7 days", "protocol": "A, The GRK2-mediated phosphorylation of Srsf1 was determined by immunoblot in cardiac lysates prepared from hearts of non-transgenic B6 mice after treatment (i.p.) for 5 h with 10 mg/kg of 1-(1,3-benzodioxol-5-yl)-4-(cyclopropane-carbonyl)-3-hydroxy-2-phenyl-2H-pyrrol-5-one (“Compound-1”), 4-(1,3-benzodioxol-5-yl)pyrimidine (“Compound-4”), 1-(1,3-benzodioxol-5-ylmethyl)-5-(4-fluorophenyl)-2-methyl-pyrrole-3-carboxamide (“Compound-2”), or (4R)-N3-(1,3-benzodioxol-5-ylmethyl)-N4-[[3-(trifluoromethyl)phenyl]-methyl]pyrrolidine-3,4-dicarboxamide (“Compound-5”) relative to vehicle-treated B6 controls (“con”). […] B, Left panel: The AAC-induced cardiac p-Srsf1 content was determined in cardiac lysates from B6 mice with AAC after treatment for 7 days with 5 mg/kg/d of 1-(1,3-benzodioxol-5-yl)-4-(cyclopropane-carbonyl)-3-hydroxy-2-phenyl-2H-pyrrol-5-one (“Compound-1”) or (4R)-N3-(1,3-benzodioxol-5-ylmethyl)-N4-[[3-(trifluoromethyl)phenyl]-methyl]pyrrolidine-3,4-dicarboxamide (“Compound-5”) relative to vehicle-treated B6 controls with AAC (“AAC-con”). […] Right and lower panels: Cardiac function parameters were determined by echocardiography in B6 mice with AAC after treatment for 7 days with “Compound-1” or “Compound-5” relative to vehicle-treated B6 controls with AAC ((±s.d.; n=5 (A) and n=3 (B); Dunnett's Multiple Comparison Test vs. con (A) or AAC-con (B)). […]"}, "[2]": {"biological_target": "T1, GRK2 (Mus musculus, UniProt Q99MK8)", "T1 construct": "from tissue; host or cells: heart lysate of Tg-RKIP mice", "T1 sequence (Q99MK8 1-689)": "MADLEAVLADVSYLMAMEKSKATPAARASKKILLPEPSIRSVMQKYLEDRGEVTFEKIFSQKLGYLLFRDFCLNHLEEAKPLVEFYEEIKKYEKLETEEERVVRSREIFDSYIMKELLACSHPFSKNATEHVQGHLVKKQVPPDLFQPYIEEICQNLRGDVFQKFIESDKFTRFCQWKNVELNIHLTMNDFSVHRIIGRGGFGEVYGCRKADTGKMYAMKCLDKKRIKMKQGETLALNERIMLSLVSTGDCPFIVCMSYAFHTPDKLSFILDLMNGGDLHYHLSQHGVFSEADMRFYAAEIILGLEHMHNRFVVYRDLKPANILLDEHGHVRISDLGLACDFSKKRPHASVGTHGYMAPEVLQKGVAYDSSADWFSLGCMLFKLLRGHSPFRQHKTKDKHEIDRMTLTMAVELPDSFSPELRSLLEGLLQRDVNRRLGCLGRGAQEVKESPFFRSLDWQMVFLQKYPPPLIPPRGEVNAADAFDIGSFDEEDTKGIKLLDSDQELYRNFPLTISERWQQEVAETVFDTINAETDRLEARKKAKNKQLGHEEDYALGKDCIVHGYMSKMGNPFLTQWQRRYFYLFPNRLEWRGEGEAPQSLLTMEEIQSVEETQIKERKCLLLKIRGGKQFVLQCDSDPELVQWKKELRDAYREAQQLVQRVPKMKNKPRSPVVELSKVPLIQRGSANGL", "assay": "Depletion of GRK2 from Tg-RKIP heart lysates by affinity purification of RKIP", "format": "binding", "conditions": "serine-153 phosphorylated transgenic RKIP, n=4", "excerpt": "A, Immunoblot detection of serine-153 phosphorylation of RKIP (pS153) in Tg-RKIP and B6 control hearts (n=5 mice/group). B, Removal of RKIP by affinity purification (AP) with immobilized RKIP-specific antibodies depletes the GRK2 protein from Tg-RKIP heart lysates. A control affinity purification with unrelated antibodies did neither deplete RKIP nor GRK2. Upper panels show representative experiments and lower panels show quantitative data evaluation (±s.d., n=4; *, p=0.0286; Mann Whitney Test). C, Isoproterenol-stimulated cAMP response in neonatal cardiomyocytes from Tg-RKIP and Tg-GRK2-K220R mice (n=6; ±s.d.).\nThe GRK2-inhibitory activity of transgenic RKIP (human RKIP˜PEBP1) was controlled in vivo. The phosphorylation of RKIP on serine-153 switches RKIP from Raf1 inhibition to GRK2 inhibition (Lorenz K, et al., Nature 426, 574-579 (2003)). Substantial serine-153 phosphorylation of RKIP was documented by immunoblot detection in Tg-RKIP hearts (FIG. 7A). […] We determined the GRK2 inhibition-mediated resensitization of the isoproterenol-stimulated cAMP response in neonatal cardiomyocytes as readout for GRK2 inhibition by RKIP and GRK2-K220R, respectively (Abd Alla, J, et al., J. Biol. Chem. 291, 2583-2600 (2016); Kong K C, et al., Biochemistry 47, 9279-9288 (2008))."}, "[3]": {"test_system": "GPCR phosphorylation", "conditions": "Lorenz K, et al., Nature 426, 574-579 (2003); read-out: reported IC50 value for RKIP-mediated inhibition of GPCR phosphorylation; cited from earlier work"}}}
{"molecule": "O=C(C1=C(O)C(c2ccccc2)N(c2ccc3c(c2)OCO3)C1=O)C1CC1", "note": "(stereo not shown) [Compound-1, 1-(1,3-benzodioxol-5-yl)-4-(cyclopropane-carbonyl)-3-hydroxy-2-phenyl-2H-pyrrol-5-one]", "values": [{"measurement": "cardiac performance after chronic pressure overload imposed by AAC", "setting": "[1]; echocardiography", "result": "improved"}, {"measurement": "chronic pressure overload-induced cardiac p-Srsf1 content", "setting": "[1]; relative to vehicle", "result": "retarded"}]}
{"molecule": "RKIP: raf kinase inhibitor protein, a dual-specific GRK2 and Raf kinase inhibitor (protein, UniProt P30086 2-187, looked up) Phosphatidylethanolamine-bindi …: PVDLSKWSGPLSLQEVDEQPQHPLHVTYAGAAVDELGKVLTPTQVKNRPTSISWDGLDSGKLYTLVLTDPDAPSRKDPKYREWHHFLVVNMKGNDISSGTVLSDYVGSGPPKGTGLHRYVWLVYEQDRPLKCDEPILSNRSGDHRGKFKVASFRKKYELRAPVAGTCYQAEWDDYVPKLYEQLSGK", "values": [{"measurement": "GRK2 protein bound and neutralized in Tg-RKIP hearts", "setting": "[2]", "result": 90.4, "unit": "%"}, {"measurement": "IC50", "setting": "[3]", "result": 460, "unit": "nM"}]}
